Reference: publication PMC2854715, “Oxpholipin 11D: An Anti-Inflammatory Peptide That Binds Cholesterol and Oxidized Phospholipids” (PLoS ONE, 2010)
“Also recorded” adds a separate entry of the source. Non-standard residues stand in square brackets, D forms with d. Residues, ends and D or L forms follow the SMILES beside them. dDip = N[C@@H](C(=O)O)C(c1ccccc1)c1ccccc1

Assays:
[1] = SPR binding to 15(S)-HPETE
Procedure: (§1) Binding experiments were done by surface plasmon resonance (SPR) on a BIAcore 3000 system (BiaCore AB, Piscataway, NJ). Peptide ligands and apoA-I were immobilized on a BIAcore CM5 sensor chip activated per the manufacturer's protocol with N-hydroxysuccinimide and 1-ethyl-3-(3-[…]) carbodiimide. After achieving adequate immobilization, the activated sensor surface was blocked with ethanolamine.
(§2) Lipid stock solutions were prepared in absolute ethanol and then diluted into a standard BIAcore buffer (HBS-EP), containing 10 mM HEPES, pH 7.4, 150 mM NaCl, 3 mM EDTA and 0.005% (v/v) surfactant P20. Lipid concentrations used in the binding studies were selected to give binding responses of 30-500 resonance units. Lipid stock solutions were prepared at 1 mg/ml in ethanol. […] Ethanol-free HBS-EP buffer was used during the dissociation phase. Lipid binding was measured by observing the change in the SPR angle as 150 µl of lipid analyte (various concentrations) in HBS-EP buffer flowed over the biosensor for 3 min at 50 µl/min. Biosensors were washed with 25 or 50% ethanol to regenerate them between binding studies. SPR data were corrected for background binding to the matrix of the chip (“blank” channel) and analyzed with BIAevaluation 4.1 software (Biacore, Piscataway, NJ).

[2] = SPR binding to 22(S)-hydroxycholesterol
Procedure: as §1, §2

[3] = SPR binding to linoleic acid
Procedure: as §1, §2

[4] = SPR binding to 4β-hydroxycholesterol; conditions: peptide immobilized on CM5 chip, sterol in HBS-EP pH 7.4, mean ± SEM
Procedure: as §1, §2

[5] = SPR binding to 20(S)-hydroxycholesterol
Procedure: as §1, §2

[6] = SPR binding to 25-hydroxycholesterol; conditions: peptide immobilized on CM5 chip, sterol in HBS-EP pH 7.4, mean ± SEM
Procedure: as §1, §2

SPR binding to 9(S)-HODE = assay: SPR binding to 9(S)-HODE
Procedure: as §1, §2

[7] = SPR binding to arachidonic acid
Procedure: as §1, §2

[8] = SPR binding to 24(S)-hydroxycholesterol
Procedure: as §1, §2

SPR binding to POVPC = assay: SPR binding to POVPC
Procedure: as §1, §2

SPR binding to PEIPC = assay: SPR binding to PEIPC
Procedure: as §1, §2

[9] = SPR binding to 5(S)-HPETE
Procedure: as §1, §2

[10] = SPR binding to cholesterol; conditions: peptide immobilized on CM5 chip, sterol in HBS-EP pH 7.4, mean ± SEM
Procedure: as §1, §2

[11] = SPR binding to 13(S)-HPODE
Procedure: as §1, §2

SPR binding to KOdiA-PC = assay: SPR binding to KOdiA-PC
Procedure: as §1, §2

[12] = SPR binding to 12(S)-HPETE
Procedure: as §1, §2

apoE deficient mice = assay: In vivo activity in apoE deficient mice: HDL inflammatory index; conditions: 1 mg/kg subcutaneously, fasting female apoE deficient mice, HDL isolated 6 h after dose, normalized to LDL; Figure 3
Procedure: As previously described, [64], HAEC cells were treated with native LDL (250 µg/ml) in the absence or presence of HDL or tested peptides for 8 h. After these cultures were washed, the medium was replaced by fresh Medium 199 and the cultures were incubated for an additional 8 h. This culture medium was collected and assayed for monocyte chemotactic activity using chambers purchased from Neuroprobe (Cabin John, MD). After monocytes were added to the upper compartment, the chamber was incubated for 60 min at 37°C and subsequently disassembled. The membrane was rinsed, air dried, fixed with 1% glutaraldehyde, stained with 0.1% crystal violet dye, and 12 standardized high power fields were examined microscopically. The number of migrated monocytes was expressed as the mean ±SD of monocytes counted. Values obtained in the absence of HDL were normalized to a value of 1.0. Normalized values >1.0 after HDL addition were considered to be pro-inflammatory, and values <1.0 as being anti-inflammatory.
ApoE null mice on a C57BL/6J background, originally from Jackson Laboratories (Bar Harbor, ME), were maintained in a breeding colony in the Department of Laboratory and Animal Medicine at the David Geffen School of Medicine at UCLA. The mice were maintained on a chow diet (Ralston Purina, St. Louis, MO).
Six hours later, and with continued fasting, blood was removed from the retro-orbital sinus under mild isoflurane anesthesia, and anticoagulated with heparin (2.5 U/ml). Plasma was obtained and fractionated by FPLC. HDL-containing fractions were tested in HAEC cultures for their ability to inhibit LDL-induced monocyte chemotactic activity. All procedures conformed to regulations of the UCLA Animal Research Committee. An HDL inflammatory index was determined using the standard monocyte chemotaxis assay. Indices >1 were interpreted as pro-inflammatory, and indices <1 as anti-inflammatory.

[13] = SPR binding to 13(S)-HODE
Procedure: as §1, §2

[14] = SPR binding to 12(S)-HETE
Procedure: as §1, §2

SPR binding to PGPC = assay: SPR binding to PGPC
Procedure: as §1, §2

[15] = SPR binding to palmitic acid
Procedure: as §1, §2

[16] = SPR binding to 15(S)-HETE
Procedure: as §1, §2

Bovine albumin = target: T1, Bovine albumin (Bos taurus, UniProt P02769); assay: SPR binding to bovine albumin (control); conditions: peptide immobilized on CM5 chip, analyte in HBS-EP pH 7.4, mean ± SEM
T1 construct: purchased Sigma-Aldrich
T1 sequence (P02769 25-607): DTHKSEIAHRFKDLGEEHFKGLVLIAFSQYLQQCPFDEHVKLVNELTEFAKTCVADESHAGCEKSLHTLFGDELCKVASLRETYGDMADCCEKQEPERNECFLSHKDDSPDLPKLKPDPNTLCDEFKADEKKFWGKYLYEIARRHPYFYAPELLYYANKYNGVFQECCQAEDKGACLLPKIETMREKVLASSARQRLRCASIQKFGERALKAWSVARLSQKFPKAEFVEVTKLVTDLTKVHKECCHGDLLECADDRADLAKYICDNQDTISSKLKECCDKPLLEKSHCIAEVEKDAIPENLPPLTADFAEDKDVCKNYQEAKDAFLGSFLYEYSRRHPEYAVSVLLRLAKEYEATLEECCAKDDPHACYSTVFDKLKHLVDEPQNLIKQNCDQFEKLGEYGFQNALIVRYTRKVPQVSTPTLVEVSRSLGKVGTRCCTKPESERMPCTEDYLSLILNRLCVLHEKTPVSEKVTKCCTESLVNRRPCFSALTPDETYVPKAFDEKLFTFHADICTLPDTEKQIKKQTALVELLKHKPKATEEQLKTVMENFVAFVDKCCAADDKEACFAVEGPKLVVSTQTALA
Procedure: as §1, §2

[17] = KD(D-4F)/KD(OxP-11D), >1: OxP-11D binds with higher affinity
[18] = SPR, peptide immobilized on CM5 chip, lipid in HBS-EP pH 7.4, mean ± SEM
[19] = SPR, peptide immobilized on CM5 chip, sterol in HBS-EP pH 7.4, mean ± SEM
[20] = based on the KD ratios of Table 3

With `CC(C)C[C@@H](NC(=O)CNC(=O)[C@H](NC(=O)[C@H](NC(=O)[C@@H](CCC(=O)O)NC(=O)[C@H](N)CCCNC(=N)N)C(c1ccccc1)c1ccccc1)[C@H](C)O)C(=O)N[C@H](C)C(=O)N[C@H](Cc1c[nH]c2ccccc12)C(=O)N[C@H](CCC(=O)O)C(=O)N[C@H](Cc1c[nH]c2ccccc12)C(=O)N[C@H](Cc1c[nH]c2ccccc12)C(=O)N[C@H](CCCNC(=N)N)C(=O)N[C@@H](C(=O)N[C@@H](C(N)=O)C(C)C)[C@H](C)O` [OxP-11D] (H-[dR][dE][dDip][dT]G[dL][dA][dW][dE][dW][dW][dR][dT][dV]-NH2; N-terminus assumed) the “D-4F/OxP-11D KD Ratio, 15(S)-HPETE” value [1, 17] was 1.133, the Kd [1, 18] was 0.045 µM and the “D-4F/OxP-11D KD Ratio, 22(S)-hydroxycholesterol” value [2, 17] was 33.333. The Kd [2, 19] was 0.45 µM, the “D-4F/OxP-11D KD Ratio, linoleic acid” value [3, 17] was 0.025 and the Kd [3, 18] was 0.6 µM. The “KD ± SEM, 4β-hydroxycholesterol” value [4] was “BND”, the “D-4F/OxP-11D KD Ratio, 20(S)-hydroxycholesterol” value [5, 17] was 7.647 and the Kd [5, 19] was 0.51 µM. The “KD ± SEM, 25-hydroxycholesterol” value [6] was “BND”, the “D-4F/OxP-11D KD Ratio, 9(S)-HODE” value (SPR binding to 9(S)-HODE; [17]) was 0.714 and the Kd (SPR binding to 9(S)-HODE; [18]) was 0.021 µM. For the same compound, the “D-4F/OxP-11D KD Ratio, arachidonic acid” value [7, 17] was 0.012, the Kd [7, 18] was 0.97 µM and the “D-4F/OxP-11D KD Ratio, 24(S)-hydroxycholesterol” value [8, 17] was 17.917. For the same compound, the Kd [8, 19] was 0.24 µM, the “D-4F/OxP-11D KD Ratio, POVPC” value (SPR binding to POVPC; [17]) was 0.008 and the Kd (SPR binding to POVPC; [18]) was 0.3 µM. For the same compound, the “D-4F/OxP-11D KD Ratio, PEIPC” value (SPR binding to PEIPC; [17]) was 0.005, the Kd (SPR binding to PEIPC; SPR binding isotherm, Figure 5B, biosensor presented 4686 RU of OxP-11D) was 0.0124 ± 0.0044 µM and the “D-4F/OxP-11D KD Ratio, 5(S)-HPETE” value [9, 17] was 1.059. For the same compound, the Kd ([9]; SPR binding isotherm, Figure 5D, biosensor presented 4686 RU of OxP-11D) was 0.0169 ± 0.0048 µM, the “Affinity for 5(S)-HPETE relative to affinity for arachidonic acid” value [9, 20] was “approximately 57 fold” and the Kd [10] was 0.36 µM. The “D-4F/OxP-11D KD Ratio, 13(S)-HPODE” value [11, 17] was 0.677, the Kd [11, 18] was 0.031 µM and the “D-4F/OxP-11D KD Ratio, KOdiA-PC” value (SPR binding to KOdiA-PC; [17]) was 0.003. The Kd (SPR binding to KOdiA-PC; [18]) was 0.19 µM, the “D-4F/OxP-11D KD Ratio, 12(S)-HPETE” value [12, 17] was 5.000 and the Kd ([12]; SPR binding isotherm, Figure 5C, biosensor presented 4686 RU of OxP-11D) was 0.0344 ± 0.0101 µM. The “Affinity for 12(S)-HPETE relative to affinity for arachidonic acid” value [12, 20] was “approximately 28.5 fold”, the “HDL Inflammatory Index in vivo” value (apoE deficient mice) was “activity rivaled D-4F; also recorded: equally effective” and the “D-4F/OxP-11D KD Ratio, 13(S)-HODE” value [13, 17] was 2.895. For the same compound, the Kd [13, 18] was 0.0038 µM, the “D-4F/OxP-11D KD Ratio, 12(S)-HETE” value [14, 17] was 0.375 and the Kd [14, 18] was 0.048 µM. For the same compound, the “D-4F/OxP-11D KD Ratio, PGPC” value (SPR binding to PGPC; [17]) was 0.002, the Kd (SPR binding to PGPC; [18]) was 3.2 µM and the “D-4F/OxP-11D KD Ratio, palmitic acid” value [15, 17] was 2.030. The Kd [15, 18] was 0.33 µM, the “D-4F/OxP-11D KD Ratio, 15(S)-HETE” value [16, 17] was 0.236 and the Kd [16, 18] was 0.093 µM. For the same compound, the Kd (Bovine albumin) was 0.69 µM.
